Measured values taken from the NIST ThermoML archive (doi:10.1016/j.jct.2008.12.010).
± gives the expanded uncertainty stated by the source.

Test: xn = mol fraction of the nth substance listed
Details: for speed of sound / mass density: Liquid; for speed of sound: Linear variable-path acoustic interferometer; for mass density: Vibrating tube method; for surface tension liquid-gas: Drop volume

CCOC(=O)OCC [diethyl carbonate] + Cc1ccc(C)cc1
Details | mass density [kg/m3] | speed of sound [m/s] | surface tension liquid-gas [mN/m]
288.15 K, x1 = 0.0509 | 871.12 ± 0.23 | 1343.5 ± 2 | –
288.15 K, x1 = 0.0985 | 876.57 ± 0.23 | 1336.8 ± 1.9 | –
288.15 K, x1 = 0.1975 | 887.94 ± 0.21 | 1322.8 ± 1.9 | –
288.15 K, x1 = 0.2974 | 899.4 ± 0.2 | 1308.7 ± 1.9 | –
288.15 K, x1 = 0.3983 | 910.97 ± 0.19 | 1294.6 ± 1.9 | –
288.15 K, x1 = 0.5023 | 922.91 ± 0.18 | 1280.2 ± 1.8 | –
288.15 K, x1 = 0.5485 | 928.22 ± 0.17 | 1274 ± 1.8 | –
288.15 K, x1 = 0.5968 | 933.78 ± 0.17 | 1267.5 ± 1.8 | –
288.15 K, x1 = 0.6464 | 939.5 ± 0.17 | 1261 ± 1.8 | –
288.15 K, x1 = 0.6992 | 945.6 ± 0.16 | 1254.2 ± 1.8 | –
288.15 K, x1 = 0.7976 | 956.98 ± 0.15 | 1241.8 ± 1.7 | –
288.15 K, x1 = 0.8515 | 963.21 ± 0.15 | 1235.1 ± 1.7 | –
288.15 K, x1 = 0.9 | 968.83 ± 0.14 | 1229.4 ± 1.7 | –
288.15 K, x1 = 0.9507 | 974.69 ± 0.14 | 1223.5 ± 1.7 | –
293.15 K, x1 = 0.04951 | 866.58 ± 0.23 | 1322.7 ± 1.9 | –
293.15 K, x1 = 0.09841 | 872.13 ± 0.23 | 1315.9 ± 1.9 | –
293.15 K, x1 = 0.2007 | 883.74 ± 0.21 | 1301.6 ± 1.9 | –
293.15 K, x1 = 0.3004 | 895.04 ± 0.2 | 1287.6 ± 1.9 | –
293.15 K, x1 = 0.4017 | 906.52 ± 0.19 | 1273.5 ± 1.8 | –
293.15 K, x1 = 0.4997 | 917.64 ± 0.18 | 1260 ± 1.8 | –
293.15 K, x1 = 0.5976 | 928.79 ± 0.17 | 1246.8 ± 1.8 | –
293.15 K, x1 = 0.65 | 934.76 ± 0.17 | 1239.9 ± 1.8 | –
293.15 K, x1 = 0.6999 | 940.46 ± 0.16 | 1233.4 ± 1.8 | –
293.15 K, x1 = 0.7969 | 951.55 ± 0.15 | 1221.2 ± 1.7 | –
293.15 K, x1 = 0.8522 | 957.87 ± 0.15 | 1214.5 ± 1.7 | –
293.15 K, x1 = 0.9516 | 969.28 ± 0.14 | 1203.1 ± 1.7 | –
298.15 K, x1 = 0.05081 | 862.33 ± 0.23 | 1301.4 ± 1.9 | –
298.15 K, x1 = 0.05201 | – | – | 27.27 ± 0.28
298.15 K, x1 = 0.09983 | – | – | 27.12 ± 0.28
298.15 K, x1 = 0.1564 | 874.2 ± 0.22 | 1286.7 ± 1.9 | –
298.15 K, x1 = 0.2023 | – | – | 26.85 ± 0.27
298.15 K, x1 = 0.2581 | 885.6 ± 0.21 | 1272.5 ± 1.9 | –
298.15 K, x1 = 0.3052 | 890.87 ± 0.2 | 1265.9 ± 1.9 | –
298.15 K, x1 = 0.3063 | – | – | 26.61 ± 0.27
298.15 K, x1 = 0.4021 | 901.73 ± 0.19 | 1252.4 ± 1.8 | –
298.15 K, x1 = 0.4043 | – | – | 26.39 ± 0.26
298.15 K, x1 = 0.4446 | – | – | 26.31 ± 0.26
298.15 K, x1 = 0.4941 | 912.05 ± 0.18 | 1239.7 ± 1.8 | –
298.15 K, x1 = 0.5014 | 912.87 ± 0.18 | 1238.7 ± 1.8 | –
298.15 K, x1 = 0.5042 | – | – | 26.19 ± 0.26
298.15 K, x1 = 0.5936 | – | – | 26.01 ± 0.26
298.15 K, x1 = 0.5966 | 923.58 ± 0.17 | 1226 ± 1.8 | –
298.15 K, x1 = 0.6896 | 934.06 ± 0.16 | 1213.8 ± 1.8 | –
298.15 K, x1 = 0.7041 | – | – | 25.8 ± 0.26
298.15 K, x1 = 0.7459 | 940.42 ± 0.16 | 1206.7 ± 1.7 | –
298.15 K, x1 = 0.7994 | – | – | 25.65 ± 0.25
298.15 K, x1 = 0.8968 | – | – | 25.52 ± 0.25
298.15 K, x1 = 0.8987 | 957.7 ± 0.15 | 1188.4 ± 1.7 | –
298.15 K, x1 = 0.9492 | 963.41 ± 0.14 | 1182.6 ± 1.7 | –
303.15 K, x1 = 0.05001 | 857.79 ± 0.23 | 1280.6 ± 1.9 | –
303.15 K, x1 = 0.09883 | 863.2 ± 0.23 | 1274 ± 1.9 | –
303.15 K, x1 = 0.1971 | 874.11 ± 0.22 | 1260.3 ± 1.9 | –
303.15 K, x1 = 0.3068 | 886.26 ± 0.2 | 1245 ± 1.8 | –
303.15 K, x1 = 0.3908 | 895.57 ± 0.19 | 1233.2 ± 1.8 | –
303.15 K, x1 = 0.499 | 907.57 ± 0.18 | 1218.4 ± 1.8 | –
303.15 K, x1 = 0.5482 | 913.03 ± 0.18 | 1211.7 ± 1.8 | –
303.15 K, x1 = 0.6011 | 918.91 ± 0.17 | 1204.7 ± 1.8 | –
303.15 K, x1 = 0.6472 | 924.05 ± 0.17 | 1198.6 ± 1.8 | –
303.15 K, x1 = 0.6979 | 929.7 ± 0.16 | 1192.1 ± 1.7 | –
303.15 K, x1 = 0.7962 | 940.68 ± 0.16 | 1179.8 ± 1.7 | –
303.15 K, x1 = 0.9007 | 952.41 ± 0.15 | 1167.4 ± 1.7 | –
303.15 K, x1 = 0.951 | 958.07 ± 0.14 | 1161.6 ± 1.7 | –
308.15 K, x1 = 0.09736 | 858.51 ± 0.23 | 1253.3 ± 1.9 | –
308.15 K, x1 = 0.2045 | 870.25 ± 0.21 | 1238.5 ± 1.9 | –
308.15 K, x1 = 0.2963 | 880.29 ± 0.2 | 1225.7 ± 1.8 | –
308.15 K, x1 = 0.4046 | 892.15 ± 0.19 | 1210.4 ± 1.8 | –
308.15 K, x1 = 0.4955 | 902.1 ± 0.18 | 1197.8 ± 1.8 | –
308.15 K, x1 = 0.5478 | 907.85 ± 0.18 | 1190.9 ± 1.8 | –
308.15 K, x1 = 0.6058 | 914.21 ± 0.17 | 1183.1 ± 1.8 | –
308.15 K, x1 = 0.657 | 919.84 ± 0.17 | 1176.5 ± 1.7 | –
308.15 K, x1 = 0.6936 | 923.87 ± 0.17 | 1171.9 ± 1.7 | –
308.15 K, x1 = 0.7468 | 929.74 ± 0.16 | 1165.2 ± 1.7 | –
308.15 K, x1 = 0.8022 | 935.86 ± 0.16 | 1158.4 ± 1.7 | –
308.15 K, x1 = 0.9035 | 947.12 ± 0.15 | 1146.5 ± 1.7 | –
